According to US11066403B2, “Solid form of azetidine derivative and preparation method therefor and use thereof” (SICHUAN KELUN-BIOTECH BIOPHARMACEUTICAL CO., LTD., priority 2017, dated 2021):
Blank lines part the entries; values can stand above or below the compound they belong to.

How the values were obtained:
[1] = Viscous fluidity test (bulk density, angle of repose); type: physicochemical; settings: for angle of repose: funnel method, tan α=H/R; for most apparent density (bulk density): without applying any external force
Description: (§1) A measuring container was filled with crystalline form B (1.97 g) of the compound of Formula (I), and the volume was determined to be 7.62 ml without applying any external force. The most apparent density (i.e., bulk density) was calculated to be 0.26 g/ml. The powder was slowly added into a funnel from above so that the material leaking from the bottom of the funnel formed a conical stack on the horizontal surface, and the diameter of the bottom of the cone (2R) and the height of the cone (H) were measured to be 3.59 cm and 1.79 cm, respectively. And the angle of repose was calculated to be 45 degrees according to the formula for calculating the angle of repose (tan α=H/R).
as §1, with “The” for “A measuring container was filled with crystalline form B (1.97 g) of the compound of Formula (I), and the volume was determined to be 7.62 ml without applying any external force. The”, “0.43” for “0.26”, “cone” for “cone (H)”, “2.91” for “3.59”, “1.46” for “1.79”

[2] = Physicochemical stability (high temperature, high humidity, light; XRPD and HPLC); settings: XRPD
hERG potassium channel = target: T1, hERG potassium channel (Homo sapiens, UniProt Q12809); experiment: hERG test (Predictor hERG Fluorescence Polarization Assay Kit); type: binding
T1 construct: purchased Thermo Fisher
T1 sequence (Q12809 whole entry): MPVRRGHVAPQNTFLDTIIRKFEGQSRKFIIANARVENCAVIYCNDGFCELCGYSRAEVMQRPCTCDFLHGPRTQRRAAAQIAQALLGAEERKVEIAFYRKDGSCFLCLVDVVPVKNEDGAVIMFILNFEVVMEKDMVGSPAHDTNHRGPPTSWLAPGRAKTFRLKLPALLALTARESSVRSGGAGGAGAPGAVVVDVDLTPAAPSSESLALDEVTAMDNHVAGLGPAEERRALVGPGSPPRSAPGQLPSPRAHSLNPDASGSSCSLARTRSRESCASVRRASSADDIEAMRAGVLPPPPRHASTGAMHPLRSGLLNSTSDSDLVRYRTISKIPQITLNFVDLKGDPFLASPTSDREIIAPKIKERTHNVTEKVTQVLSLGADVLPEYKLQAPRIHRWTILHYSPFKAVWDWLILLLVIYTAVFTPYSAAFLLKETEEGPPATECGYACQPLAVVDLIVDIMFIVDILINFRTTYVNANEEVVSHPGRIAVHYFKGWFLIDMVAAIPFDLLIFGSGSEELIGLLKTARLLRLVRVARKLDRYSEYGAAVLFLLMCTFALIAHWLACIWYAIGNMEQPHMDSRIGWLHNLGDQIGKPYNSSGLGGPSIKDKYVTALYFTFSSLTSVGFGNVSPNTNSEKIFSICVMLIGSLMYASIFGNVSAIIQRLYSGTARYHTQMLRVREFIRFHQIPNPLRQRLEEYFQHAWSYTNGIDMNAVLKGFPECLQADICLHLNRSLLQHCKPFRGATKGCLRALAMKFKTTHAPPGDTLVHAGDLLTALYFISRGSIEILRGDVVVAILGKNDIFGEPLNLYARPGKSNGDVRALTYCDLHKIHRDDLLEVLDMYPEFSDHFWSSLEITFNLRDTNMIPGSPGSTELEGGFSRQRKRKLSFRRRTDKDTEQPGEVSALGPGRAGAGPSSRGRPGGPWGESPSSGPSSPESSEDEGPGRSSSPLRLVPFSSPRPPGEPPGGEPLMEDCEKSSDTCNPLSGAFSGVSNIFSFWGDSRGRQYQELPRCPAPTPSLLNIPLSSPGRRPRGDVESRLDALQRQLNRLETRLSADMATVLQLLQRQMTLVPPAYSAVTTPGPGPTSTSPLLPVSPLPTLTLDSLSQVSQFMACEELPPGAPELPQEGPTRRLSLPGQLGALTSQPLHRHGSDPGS
Description: The effects of the crystalline forms of the compound of Formula (I) on hERG potassium channel were determined using a biochemical hERG assay kit based on fluorescence polarization technology (Predictor™ hERG Fluorescence Polarization Assay Kit, Thermo Fisher) to assess the potential of the crystalline form of the compound of Formula (I) in inducing cardiac QT interval prolongation.

[3] = Cytotoxicity (MTS) in HEK293; type: cell-based; settings: HEK293 cells, human embryonic kidney cell, 40 h incubation
Description: (§2) The cells were plated at a concentration of 2×10^4 cells/well and incubated for 4 h at 37° C. in a 5% CO2 incubator. The crystalline form of the compound of Formula (I) of the present invention was added, and incubation was continued for 40 h. The incubation solution was removed, and a complete medium was added (100 μl/well) to each test well and incubated in the incubator for 0.5 to 1 h. Then, MTS solution was added (10 μl/well) thereto, and incubation was continued for 4 h in the incubator. The absorbance at 450 nm was measured, and the IC50 value was calculated.

[4] = Cytotoxicity (MTS) in HK-2; type: cell-based; settings: HK-2 cells, human proximal tubular cell, 40 h incubation
Description: as §2

[5] = Cytotoxicity (MTS) in N2a; type: cell-based; settings: mouse, N2a neuroblastoma cells, neuroblastoma cell, 40 h incubation
Description: as §2

JAK3 = target: T2, JAK3 (Homo sapiens, UniProt P52333); experiment: JAK3 enzymatic activity inhibition assay (HTRF KinEASE-TK); type: biochemical
T2 sequence (P52333 1-1124): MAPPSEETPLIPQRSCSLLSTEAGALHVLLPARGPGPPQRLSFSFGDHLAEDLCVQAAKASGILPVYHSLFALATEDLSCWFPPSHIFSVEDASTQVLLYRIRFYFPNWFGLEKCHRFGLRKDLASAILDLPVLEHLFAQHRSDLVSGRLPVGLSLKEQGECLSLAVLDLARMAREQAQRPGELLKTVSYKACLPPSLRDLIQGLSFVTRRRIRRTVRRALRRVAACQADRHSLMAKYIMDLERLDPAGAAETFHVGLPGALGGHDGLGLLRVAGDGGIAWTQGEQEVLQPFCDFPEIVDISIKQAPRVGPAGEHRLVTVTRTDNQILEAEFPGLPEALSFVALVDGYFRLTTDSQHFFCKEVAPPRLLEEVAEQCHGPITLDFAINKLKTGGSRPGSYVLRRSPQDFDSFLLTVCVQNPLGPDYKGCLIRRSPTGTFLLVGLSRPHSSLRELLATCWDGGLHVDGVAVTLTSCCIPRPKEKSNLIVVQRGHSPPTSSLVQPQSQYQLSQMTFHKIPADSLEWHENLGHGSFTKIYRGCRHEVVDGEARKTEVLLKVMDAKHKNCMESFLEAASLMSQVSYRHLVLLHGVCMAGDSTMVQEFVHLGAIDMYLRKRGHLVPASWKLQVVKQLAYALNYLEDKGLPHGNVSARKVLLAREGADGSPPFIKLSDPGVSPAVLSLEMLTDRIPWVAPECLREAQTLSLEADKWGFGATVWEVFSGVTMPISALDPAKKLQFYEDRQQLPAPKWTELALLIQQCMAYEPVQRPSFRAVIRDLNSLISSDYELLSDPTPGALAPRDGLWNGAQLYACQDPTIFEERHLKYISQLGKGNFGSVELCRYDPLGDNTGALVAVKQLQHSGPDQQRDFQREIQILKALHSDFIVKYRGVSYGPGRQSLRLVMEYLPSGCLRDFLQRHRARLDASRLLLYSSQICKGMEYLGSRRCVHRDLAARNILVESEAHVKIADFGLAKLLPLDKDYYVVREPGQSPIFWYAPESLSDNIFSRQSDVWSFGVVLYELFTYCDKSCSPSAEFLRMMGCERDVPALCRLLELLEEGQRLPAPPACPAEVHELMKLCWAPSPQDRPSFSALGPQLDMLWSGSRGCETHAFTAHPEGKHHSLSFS
Description: (§3) The crystalline form of the compound of Formula (I), an enzyme, a substrate and ATP were diluted to desired concentrations with the buffer in the HTRF® KinEASE™-TK kit (Cisbio). The former three agents were added into a multiple well plate, and incubated at room temperature after being mixed homogeneously. ATP was added to initiate the kinase reaction, and incubation at room temperature was performed. The test reagent in the kit was used to terminate the reaction, and incubation was continued at room temperature. After the incubation was completed, fluorescence signals at 620 nm and 665 nm were measured using a BMG PHERAstar FS microplate reader, and the half inhibitory concentration (IC50) values were calculated.

TYK2 = TYK2 (Homo sapiens, UniProt P29597); experiment: TYK2 enzymatic activity inhibition assay (HTRF KinEASE-TK); type: biochemical
Sequence of TYK2 (P29597 whole entry, species assumed): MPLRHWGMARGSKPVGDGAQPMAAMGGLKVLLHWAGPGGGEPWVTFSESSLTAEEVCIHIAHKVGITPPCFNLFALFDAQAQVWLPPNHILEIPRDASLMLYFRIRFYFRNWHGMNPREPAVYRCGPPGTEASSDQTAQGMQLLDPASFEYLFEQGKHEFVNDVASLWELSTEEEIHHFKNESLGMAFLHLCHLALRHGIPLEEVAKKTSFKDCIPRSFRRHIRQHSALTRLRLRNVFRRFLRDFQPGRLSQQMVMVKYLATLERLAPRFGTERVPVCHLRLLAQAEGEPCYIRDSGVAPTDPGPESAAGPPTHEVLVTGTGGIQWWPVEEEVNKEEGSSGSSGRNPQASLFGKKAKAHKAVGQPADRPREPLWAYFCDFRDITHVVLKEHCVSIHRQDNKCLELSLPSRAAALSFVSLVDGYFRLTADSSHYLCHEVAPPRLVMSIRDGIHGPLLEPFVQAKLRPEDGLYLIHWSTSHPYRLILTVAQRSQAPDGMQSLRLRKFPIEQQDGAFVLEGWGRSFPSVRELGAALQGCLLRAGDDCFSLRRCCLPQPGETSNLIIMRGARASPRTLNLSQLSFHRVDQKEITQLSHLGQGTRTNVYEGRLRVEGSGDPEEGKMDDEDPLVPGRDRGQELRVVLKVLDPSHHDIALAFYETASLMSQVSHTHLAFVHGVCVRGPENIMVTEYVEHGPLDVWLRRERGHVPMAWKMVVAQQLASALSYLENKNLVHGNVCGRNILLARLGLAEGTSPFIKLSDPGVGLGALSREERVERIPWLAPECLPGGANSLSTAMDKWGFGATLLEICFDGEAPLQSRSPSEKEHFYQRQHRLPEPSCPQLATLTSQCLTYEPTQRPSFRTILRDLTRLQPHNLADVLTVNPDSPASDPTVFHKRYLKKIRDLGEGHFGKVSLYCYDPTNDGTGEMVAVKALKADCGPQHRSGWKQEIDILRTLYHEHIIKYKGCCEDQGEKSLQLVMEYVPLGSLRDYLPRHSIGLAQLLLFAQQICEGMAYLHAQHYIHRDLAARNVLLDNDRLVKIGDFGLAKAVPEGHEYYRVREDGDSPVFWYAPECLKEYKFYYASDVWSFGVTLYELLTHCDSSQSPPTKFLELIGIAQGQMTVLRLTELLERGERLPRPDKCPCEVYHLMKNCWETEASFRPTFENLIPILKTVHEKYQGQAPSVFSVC
Description: as §3

[6] = test system: STAT3 phosphorylation in Hep3B cells; experiment: Effect on JAK/STAT signaling pathway in Hep3B cells (IL-6 induced p-STAT3, AlphaLISA); type: cell-based; settings: Homo sapiens, 0.5 h, IL-6 stimulation 30 min
Description: After incubating the crystalline form of the compound of Formula (I) of the present invention with Hep3B cells in a 37° C., 5% CO2 incubator for 15 min, […] IL-6 was added. Incubation was continued for 30 min, and the cells were lysed. The lysate was added to AlphaLISA SureFire Ultra p-STAT3 (Tyr705) assay kit (PerkinElmer), incubated at room temperature in dark, and the signals emitted by the receptor microbeads after energy absorption were measured, and the half inhibitory concentration (IC50) of inhibiting STAT3 phosphorylation was calculated.

[7] = test system: Collagen-Induced Arthritis (CIA) model; experiment: Efficacy in collagen-induced arthritis (CIA) model in rats; type: in vivo, rat; parameters: Mean pathological score, Joint inflammation (X ± SD) / Mean pathological score, Joint cartilage erosion (X ± SD) / Mean pathological score, Synovial hyperplasia/pannus (X ± SD): scale not given here; settings: for Mean pathological score, Joint cartilage erosion (X ± SD) / Mean pathological score, Joint inflammation (X ± SD) / Mean pathological score, Synovial hyperplasia/pannus (X ± SD): hind paw joints
Description: After female Lewis rats were immunized twice with bovine type II collagen to form a CIA model, the rats were randomly divided into 4 groups (the vehicle group, and the groups of the crystalline form of the compound of Formula (I) of the present invention (1 mg/kg, 3 mg/kg, 10 mg/kg), respectively), and unmodeled rats were taken as the normal group. The corresponding drugs were administered by gavage once a day for 14 days (D15-D28). The hind paw was scored for arthritis index during the administration (the results are shown in Table 5); and after the end of the experiment, the ankle joint was taken for pathologic analysis (the average pathological scores of the hind paw joints of the rats are shown in Table 6).

[8] = high humidity (92.5%) for 5 days
[9] = high temperature (60° C.) for 5 days
[10] = 1 mg/kg gavage once a day for 14 days
[11] = 3 mg/kg gavage once a day for 14 days
[12] = 10 mg/kg gavage once a day for 14 days

particle fluidity [1]: good particle fluidity | angle of repose [1]: 45 degrees | most apparent density (bulk density) [1]: 0.43 g/mL | Changes in crystalline form [2, 8]: No | Changes in crystalline form [2, 9]: No | Changes in crystalline form ([2]; light condition for 5 days): No | IC50 (JAK3): 0.0161 ± 0.00155 µM | IC50 (TYK2): 0.0228 ± 0.00403 µM | IC50 [6]: 0.123 ± 0.0183 µM
SMILES: CCS(=O)(=O)N1CC(CC#N)(n2cc(-c3ccnc4[nH]ccc34)cn2)C1 [Crystalline form A, 2-(3-(4-(1H-pyrrolo[2,3-b]pyridin-4-yl)-1H-pyrazol-1-yl)-1-(ethylsulfonyl)azetidin-3-yl)acetonitrile]
inhibition at 2 h, 30 µM (hERG potassium channel; human, probe tracer with high hERG affinity, at 30 μM, read-out: hERG inhibition rate): < 50% | IC50 (hERG potassium channel; test concentration 3, 10 and 30 μM, 25° C., 2 h): > 30 µM | IC50 at 40 h [3]: > 50 µM | IC50 at 40 h [4]: 23.1 µM | IC50 at 40 h [5]: 33.6 µM | Effect on mean pathological score of synovial hyperplasia/pannus (in words) ([7]; 1 mg/kg): to some extent | Effect on mean pathological scores of joint inflammation and joint cartilage erosion (in words) ([7]; 1 mg/kg): significantly reduce | Mean pathological score, Joint cartilage erosion (X ± SD) [7, 10]: 5.10 ± 1.52 | Mean pathological score, Joint inflammation (X ± SD) [7, 10]: 4.00 ± 1.25 | Mean pathological score, Synovial hyperplasia/pannus (X ± SD) [7, 10]: 6.90 ± 0.99 | Effect on mean pathological scores of joint inflammation, joint cartilage erosion and synovial hyperplasia/pannus (in words) ([7]; 3 mg/kg): significantly reduce | Mean pathological score, Joint cartilage erosion (X ± SD) [7, 11]: 2.20 ± 1.93 | Mean pathological score, Joint inflammation (X ± SD) [7, 11]: 2.60 ± 1.90 | Mean pathological score, Synovial hyperplasia/pannus (X ± SD) [7, 11]: 4.80 ± 1.40 | Effect on mean pathological scores of joint inflammation, joint cartilage erosion and synovial hyperplasia/pannus (in words) ([7]; 10 mg/kg): significantly reduce | Mean pathological score, Joint cartilage erosion (X ± SD) [7, 12]: 0.10 ± 0.32 | Mean pathological score, Joint inflammation (X ± SD) [7, 12]: 0.30 ± 0.67 | Mean pathological score, Synovial hyperplasia/pannus (X ± SD) [7, 12]: 2.20 ± 0.42

particle fluidity [1]: good particle fluidity | angle of repose [1]: 45 degrees | most apparent density (bulk density) [1]: 0.26 g/mL | Changes in crystalline form [2, 8]: No | Changes in crystalline form [2, 9]: No | Changes in crystalline form ([2]; light condition for 5 days): No
SMILES: CCS(=O)(=O)N1CC(CC#N)(n2cc(-c3ccnc4[nH]ccc34)cn2)C1 [Crystalline form B, 2-(3-(4-(1H-pyrrolo[2,3-b]pyridin-4-yl)-1H-pyrazol-1-yl)-1-(ethylsulfonyl)azetidin-3-yl)acetonitrile]
